Measured values as given in PubChem BioAssay (NCI).
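Grown in 96-well plates, cells were treated for 48 hours with each compound at five concentrations. Insufficient inhibition: endpoint recorded as highest concentration tested. GI50 = concentration required for 50% inhibition of growth. TGI denotes the concentration required for complete inhibition of growth.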 Where a SMILES comes first, the peptide text is derived from it. The star is where a group is joined. Boc = CC(C)(C)OC(=O)*

Assays:
Experiment in all cases: NCI anticancer screen, dose series, 48 h
NCI-H23 lung = system: NCI-H23 lung
UO-31 renal = system: UO-31 renal
OVCAR-4 ovarian = system: OVCAR-4 ovarian
HOP-62 NSCLC = system: HOP-62 NSCLC
ACHN renal = system: ACHN renal
A498 renal = system: A498 renal
KM12 colon = system: KM12 colon
PC-3 prostate = system: PC-3 prostate
M14 melanoma = system: M14 melanoma
OVCAR-5 ovarian = system: OVCAR-5 ovarian

| Structure (SMILES) | GI50 (NCI-H23 lung) [µM] | TGI (NCI-H23 lung) [µM] | GI50 (UO-31 renal) [µM] | TGI (UO-31 renal) [µM] | GI50 (OVCAR-4 ovarian) [µM] | TGI (OVCAR-4 ovarian) [µM] | GI50 (HOP-62 NSCLC) [µM] | TGI (HOP-62 NSCLC) [µM] | GI50 (ACHN renal) [µM] | TGI (ACHN renal) [µM] | GI50 (A498 renal) [µM] | TGI (A498 renal) [µM] | GI50 (KM12 colon) [µM] | TGI (KM12 colon) [µM] | GI50 (PC-3 prostate) [µM] | TGI (PC-3 prostate) [µM] | GI50 (M14 melanoma) [µM] | TGI (M14 melanoma) [µM] | GI50 (OVCAR-5 ovarian) [µM] | TGI (OVCAR-5 ovarian) [µM] |
| --- | --- | --- | --- | --- | --- | --- | --- | --- | --- | --- | --- | --- | --- | --- | --- | --- | --- | --- | --- | --- |
| COc1cc2c(cc1-c1c(C)noc1C)cc(C)c(=O)n2Cc1ccccn1 | 3.4 | > 100 | 0.376 | > 100 | 1.33 | > 100 | 0.489 | > 100 | 1.45 | > 100 | 0.864 | 5.12 | 7.77 | > 100 | 3.47 | > 100 | 0.797 | > 100 | 2.78 | > 100 |
| COc1ccc(C(OCC2OC(n3cc(C)c(=O)[nH]c3=O)CC2n2cc(Cn3cc(F)c(=O)[nH]c3=O)nn2)(c2ccccc2)c2ccccc2)cc1 (stereo not given) | – | 27.9 | – | 23.6 | – | 47.3 | – | 25.7 | – | 27.2 | – | 28.6 | – | 14.3 | – | 31.3 | – | 27.9 | – | 35.5 |
| c1ccc2sc(SCSc3nc4ccccc4s3)nc2c1 | – | > 100 | – | > 100 | – | > 100 | – | > 100 | – | > 100 | – | > 100 | – | > 100 | – | > 100 | – | > 100 | – | > 100 |
| CSc1c(C#N)c(N)n2c1C(=O)N(c1ccccc1)C2=S | – | > 100 | – | > 100 | – | 69.7 | – | > 100 | – | > 100 | – | 94.3 | – | > 100 | – | > 100 | – | > 100 | – | > 100 |
| C=C[C@@H]1C(CO)=CCC2[C@H]1CCC1C(C)(C)C(=O)CC[C@]21C (stereo not given in full) | – | > 100 | – | > 100 | – | > 100 | – | > 100 | – | > 100 | – | > 100 | – | > 100 | – | > 100 | – | > 100 | – | > 100 |
| O=c1oc(-c2ccc(O)c(O)c2)cc2cccc(O)c12 | – | 53.6 | – | > 59.4 | – | 69.2 | – | 47.3 | – | > 81.7 | – | 42.4 | – | 32.1 | – | 47.3 | – | 51.8 | – | 86.5 |
| CC1CC[C@@]2(OC1)OC1C[C@H]3[C@@H]4CC[C@H]5CC(OC6OC(CO)C(OC7OC(CO)C(O)C(O)C7OC7OC(CO)C(O)C(O)C7O)C(O)C6O)CCC5(C)[C@H]4CCC3(C)C1[C@@H]2C (stereo not given in full) | – | 10.7 | – | 1.94 | – | 2.72 | – | 3.65 | – | 6.06 | – | 4.08 | – | 10.4 | – | 1.52 | – | 10.4 | – | 8.08 |
| O=C(NCCN1CCOCC1)c1ccc2cc(C(=O)N3CC(CCl)c4ccc([N+](=O)[O-])cc43)[nH]c2c1 (stereo not given) | – | > 100 | – | > 100 | – | 32.6 | – | 30.8 | – | 45.2 | – | 20 | – | > 100 | – | 48.8 | – | > 100 | – | > 100 |
| CCOc1cc(C2CC(c3ccc(NS(=O)(=O)c4cc([N+](=O)[O-])ccc4C)cc3)=NN2C(=O)c2ccccc2)ccc1O (stereo not given) | – | 69 | – | > 100 | – | > 100 | – | 47.2 | – | 85.3 | – | 44.3 | – | > 100 | – | > 100 | – | 76.1 | – | > 100 |
| CC(C)/C(Cl)=N\OC(=O)Nc1ccc(C#N)cc1 | – | 30 | – | 21.2 | – | 3.24 | – | 31.6 | – | 19 | – | 27.7 | – | 29.9 | – | 30.1 | – | 7.85 | – | 28.4 |
| CCOC(=N)n1c(=O)n(C2=NCCN2)c2ccccc21 | – | > 100 | – | > 100 | – | > 100 | – | > 100 | – | > 100 | – | > 100 | – | > 100 | – | > 100 | – | > 100 | – | > 100 |
| Nc1c(-c2cccc3ccccc23)c2ccc([N+](=O)[O-])cc2c(=O)n1-c1nc2ccccc2s1 | – | > 100 | – | > 100 | – | > 53.5 | – | 27.2 | – | > 100 | – | > 100 | – | 24.4 | – | > 35.3 | – | > 38.9 | – | > 41.2 |
| COc1ccc(CC(O)CN2CCOCC2)cc1 (stereo not given) | – | > 100 | – | > 100 | – | > 100 | – | > 100 | – | > 100 | – | > 100 | – | > 100 | – | > 100 | – | > 100 | – | > 100 |
| Cc1csc(-c2cn(C)c3c2C(=O)C(N)=CC3=O)n1 | – | > 30 | – | > 100 | – | > 100 | – | 98.5 | – | > 52.1 | – | > 100 | – | > 100 | – | > 100 | – | > 47.4 | – | > 100 |
| CN(C)CCCN1C(=S)N(CCCN(C)C)c2c3cc(O)ccc3nc3c([N+](=O)[O-])ccc1c23 | – | 17.1 | – | 18.7 | – | 10.9 | – | 15.3 | – | 11 | – | 5.47 | – | 9.51 | – | 13.3 | – | 22.4 | – | 28.5 |
| COc1ccc(C#CC(=O)O)c(OC)c1 | – | > 100 | – | > 100 | – | > 100 | – | > 100 | – | > 100 | – | > 100 | – | > 100 | – | > 100 | – | > 100 | – | > 100 |
| C=CCn1c(=O)ccn(COCCO)c1=O | – | > 100 | – | > 100 | – | > 100 | – | > 100 | – | > 100 | – | > 100 | – | > 100 | – | > 100 | – | > 100 | – | > 100 |
| NNC(=O)c1ccc[n+](CCc2ccccc2)c1 | – | > 100 | – | > 100 | – | > 100 | – | > 100 | – | > 100 | – | > 100 | – | > 100 | – | > 100 | – | > 100 | – | > 100 |
| N#CC(C#N)=CNC(=S)c1ccncc1 | – | > 100 | – | 52.8 | – | > 100 | – | > 100 | – | > 100 | – | > 100 | – | > 100 | – | > 100 | – | > 100 | – | > 100 |
| Brc1cccc(Nc2nc(-c3cccs3)nc3ccc(Br)cc23)c1 | – | > 100 | – | > 100 | – | > 100 | – | > 100 | – | 91 | – | > 100 | – | 46.3 | – | > 100 | – | 71.3 | – | 98.2 |
| c1ccc2c(c1)NC(C1OC3CCCN3C1C1Nc3ccccc3S1)S2 (stereo not given) | – | > 100 | – | > 100 | – | > 100 | – | > 100 | – | > 100 | – | > 100 | – | > 100 | – | > 100 | – | > 100 | – | > 100 |
| CC(=O)N/N=C1\NC(=O)C[C@H]2[C@@H]3CC=C4C[C@@H](OC(C)=O)CC[C@]4(C)[C@H]3CC[C@]12C | – | > 100 | – | > 100 | – | 25.7 | – | 32.5 | – | 52.7 | – | 35.2 | – | > 100 | – | > 100 | – | > 100 | – | > 100 |
| O=C1c2cc3c(cc2CC1Br)CCC3 (stereo not given) | – | 9.27 | – | 22.4 | – | 3.86 | – | 30.8 | – | 13.1 | – | 32.2 | – | 22.1 | – | 11.7 | – | 2.85 | – | 14.9 |
| O=[N+]([O-])/C(C(Cl)=C(Cl)Cl)=C(\Nc1cccc2cccnc12)SCc1ccccc1 | – | 32.7 | – | 38.1 | – | 46 | – | 33.6 | – | 64.4 | – | 50.6 | – | 50.4 | – | 36.5 | – | 74.3 | – | 78.9 |
| CC(C)(C)NC(=O)/C(=C\Sc1ccccc1)c1ccc2c(c1)OCO2 | – | > 100 | – | > 100 | – | > 100 | – | > 100 | – | > 100 | – | 59 | – | > 100 | – | 73.7 | – | 54.8 | – | > 100 |
| CC(C)(C)OC(=O)NCC(=O)NCC(=O)NCC(=O)NCC(=O)O (Boc-GGGG-OH) | – | > 100 | – | > 100 | – | > 100 | – | > 100 | – | > 100 | – | > 100 | – | > 100 | – | > 100 | – | > 100 | – | > 100 |
| CCCn1c(CN(Cc2nc3ccccc3n2CCC)Cc2nc3ccccc3n2CCC)nc2ccccc21 | – | > 49.6 | – | 34.3 | – | 26.1 | – | > 91 | – | > 100 | – | > 64.1 | – | 21.8 | – | 18.9 | – | 42 | – | > 89.9 |
| CN(C)c1nc(=NCc2ccccc2)ss1 | – | > 10 | – | > 10 | – | > 10 | – | > 10 | – | > 10 | – | > 10 | – | > 10 | – | > 10 | – | > 10 | – | > 10 |
| Cc1c(S(=O)(=O)/N=C(\N)Nc2ccc(Cl)cc2)sc2ccc(Cl)cc12 | – | 41.5 | – | 35.9 | – | 68.8 | – | 36.9 | – | 32.2 | – | 30.1 | – | > 100 | – | 28.2 | – | 37.9 | – | 38.1 |
| O=C1CN2C(c3ccccc3)=NN(c3ccc([N+](=O)[O-])cc3)C2(c2ccccc2)c2cc(Cl)ccc2N1CC1CC1 (stereo not given) | – | > 100 | – | > 100 | – | > 100 | – | > 100 | – | > 100 | – | > 100 | – | > 100 | – | > 100 | – | > 100 | – | > 100 |
